Calls of active or inactive are those of the source.

The subject of experiment [1] is Candida albicans. The experiment in a line: Antifungal activity against Candida albicans at 250 ug/ml after 72 hrs by disc diffusion method. The following applies: for zone of inhibition at 250 µg/mL: read-out: IZ. Type of experiment: functional. On the technique in general: A growth-free zone around the sample is the usual read-out of agar diffusion tests.
Experiment [2] concerns Staphylococcus aureus. In words: Antibacterial activity against Staphylococcus aureus at 250 ug/ml after 24 to 45 hrs by disc diffusion method. Type of experiment: functional. As to conditions: read-out: IZ.
For experiment [3], the system named is Achaea janata. The experiment in a line: Antifeedant activity against fourth instar larvae of Achaea janata fed on compound treated castor leaves at 200 ppm after 24 hrs by leaf disc method. Type of experiment: functional, organism-based.
Experiment [4] concerns Aspergillus niger. The experiment in a line: Antifungal activity against Aspergillus niger at 50 ug/ml after 72 hrs by disc diffusion method. Type of experiment: functional, organism-based.
The test system of experiment [5] is Klebsiella pneumoniae. The experiment in a line: Antibacterial activity against Klebsiella pneumoniae at 250 ug/ml after 24 to 45 hrs by disc diffusion method. Type of experiment: functional. As to conditions: read-out: IZ.
In experiment [6] the test system is Penicillium. The experiment in a line: Antifungal activity against Penicillium at 50 ug/ml after 72 hrs by disc diffusion method. Type of experiment: functional, organism-based.
The subject of experiment [7] is Proteus vulgaris. The experiment in a line: Antibacterial activity against Proteus vulgaris at 250 ug/ml after 24 to 45 hrs by disc diffusion method. Type of experiment: functional. The following applies: read-out: IZ.
Experiment [8] deals with Enterococcus faecalis. In words: Antibacterial activity against Enterococcus faecalis at 250 ug/ml after 24 to 45 hrs by disc diffusion method. As to conditions: for zone of inhibition at 250 µg/mL: read-out: IZ. Type of experiment: functional.
Experiment [9] deals with Pseudomonas. The experiment in a line: Antibacterial activity against Pseudomonas at 250 ug/ml after 24 to 45 hrs by disc diffusion method. Type of experiment: functional. The following applies: read-out: IZ.
Experiment [10] concerns Escherichia coli. In words: Antibacterial activity against Escherichia coli at 250 ug/ml after 24 to 45 hrs by disc diffusion method. Type of experiment: functional. The following applies: read-out: IZ.

`Cc1cc(Cl)c2c(c1)CN1CN2Cc2cc(C)cc(Cl)c21`: the outcome in [1], in experiment [4], in experiment [6] and in [8] was inactive. The zone of inhibition at 250 µg/mL is 13 mm in experiment [2]; 13 mm in experiment [5]; 13 mm in experiment [7]; 8 mm in [9]; 13 mm in experiment [10]. The outcome in [3] was Active.

As to `Clc1cccc2c1N1Cc3cccc(Cl)c3N(C2)C1`, the zone of inhibition at 250 µg/mL in [1] stood at 8 mm; in experiment [2], 13 mm; in experiment [5] it was 8 mm; in [7], 8 mm; in [8], 13 mm; in [9] it was 8 mm. Also, the zone of inhibition at 250 µg/mL in [10] worked out at 8 mm. The result in [3] was Active. The outcome in [4] and in experiment [6] was inactive.

As to `Fc1cccc2c1N1Cc3cccc(F)c3N(C2)C1`, the zone of inhibition at 250 µg/mL amounted to 8 mm in [1]; 8 mm in [2]; 8 mm in [5]; 8 mm in experiment [7]; 8 mm in experiment [9]; 13 mm in experiment [10]. In addition, in experiment [3], the outcome was Active. Besides, the result in experiment [4], in experiment [6] and in [8] was inactive.

In the case of `Fc1ccc2c(c1)N1Cc3ccc(F)cc3N(C2)C1`, the zone of inhibition at 250 µg/mL in [1] worked out at 8 mm; in [2], 13 mm; in experiment [5], 13 mm; in [7], 13 mm; in [9], 8 mm; in experiment [10] it was 13 mm. In addition, the result in [3] was Active. Moreover, the result in [4], in [6] and in experiment [8] was inactive.

Regarding `Brc1cccc2c1CN1CN2Cc2c(Br)cccc21`, the zone of inhibition at 250 µg/mL in experiment [1] stood at 8 mm; in experiment [2], 8 mm; in [5], 13 mm; in experiment [7] it was 8 mm; in experiment [8], 13 mm; in experiment [9], 13 mm. The zone of inhibition at 250 µg/mL in experiment [10] came to 8 mm. For the same compound, the result in [3] was Active. In addition, the outcome in experiment [4] and in experiment [6] was inactive.

As to `Cc1ccc2c(c1Br)CN1CN2Cc2c1ccc(C)c2Br`, the zone of inhibition at 250 µg/mL was determined as 8 mm in experiment [1]; 13 mm in experiment [2]; 13 mm in experiment [5]; 13 mm in experiment [7]; 8 mm in experiment [8]; 13 mm in [9]. Besides, the zone of inhibition at 250 µg/mL in experiment [10] was 13 mm. Moreover, in experiment [3], the result was Active. The result in experiment [4] and in experiment [6] was inactive.

For `Clc1ccc2c(c1)CN1CN2Cc2cc(Cl)ccc21`, the result in [1], in [4], in [6] and in experiment [8] was inactive. Further, the zone of inhibition at 250 µg/mL in experiment [2], in [5], in experiment [7], in [9] and in experiment [10] was 13 mm each time. Moreover, the result in [3] was Active.

For `COc1cc2c(cc1Cl)N1Cc3cc(OC)c(Cl)cc3N(C2)C1`, the zone of inhibition at 250 µg/mL in [1] stood at 20 mm; in experiment [2], 20 mm; in experiment [5], 20 mm; in [7], 20 mm; in experiment [8], 8 mm; in experiment [9], 20 mm. Moreover, in experiment [10], the zone of inhibition at 250 µg/mL came out at 20 mm. Besides, the result in experiment [3] and in experiment [6] was Active. Besides, the result in experiment [4] was inactive.

As for `Clc1ccc2c(c1)N1Cc3ccc(Cl)cc3N(C2)C1`, the zone of inhibition at 250 µg/mL in experiment [1] turned out to be 8 mm; in experiment [2], 13 mm; in experiment [5], 13 mm; in experiment [7], 13 mm; in [8], 13 mm; in [9], 13 mm. The zone of inhibition at 250 µg/mL in experiment [10] was determined as 13 mm. Also, the outcome in experiment [3] was Active. Further, the outcome in experiment [4] and in experiment [6] was inactive.

Take `Cc1cc2c(cc1Cl)N1Cc3cc(C)c(Cl)cc3N(C2)C1`: the zone of inhibition at 250 µg/mL was 13 mm in [1]; 8 mm in experiment [2]; 13 mm in experiment [5]; 8 mm in experiment [7]; 13 mm in experiment [8]; 13 mm in experiment [9]. Also, the zone of inhibition at 250 µg/mL in experiment [10] was found to be 8 mm. Further, the result in [3] was Active. The outcome in experiment [4] and in experiment [6] was inactive.

Take `Cc1cc2c(cc1I)N1Cc3cc(C)c(I)cc3N(C2)C1`: the zone of inhibition at 250 µg/mL in experiment [1] was 13 mm; in experiment [2] it was 13 mm; in experiment [5], 8 mm; in experiment [7], 8 mm; in experiment [9], 8 mm; in experiment [10], 8 mm. Also, the outcome in experiment [3] was Active. In addition, the outcome in [4], in experiment [6] and in [8] was inactive.

As for `COc1ccc2c(c1Br)CN1CN2Cc2c1ccc(OC)c2Br`, the zone of inhibition at 250 µg/mL in [1] turned out to be 13 mm; in experiment [2], 20 mm; in experiment [5], 20 mm; in experiment [7], 20 mm; in experiment [8] it was 13 mm; in experiment [9], 20 mm. In addition, the zone of inhibition at 250 µg/mL in [10] amounted to 20 mm. The outcome in [3], in experiment [4] and in [6] was Active.

Take `Cc1cc(N)cc2c1N1Cc3cc(N)cc(C)c3N(C2)C1`: the zone of inhibition at 250 µg/mL was determined as 13 mm in [1]; 13 mm in [2]; 13 mm in [5]; 13 mm in experiment [7]; 8 mm in experiment [8]; 13 mm in experiment [9]. The zone of inhibition at 250 µg/mL in [10] amounted to 13 mm. Also, the result in experiment [4] and in experiment [6] was inactive.

For the compound `Cc1cc([N+](=O)[O-])cc2c1N1Cc3cc([N+](=O)[O-])cc(C)c3N(C2)C1`, the zone of inhibition at 250 µg/mL in [1] amounted to 13 mm; in experiment [2], 13 mm; in [5], 13 mm; in [7] it was 13 mm; in experiment [8], 8 mm; in [9], 13 mm. Moreover, the zone of inhibition at 250 µg/mL in [10] was determined as 13 mm. The result in experiment [4] and in experiment [6] was inactive.

Values taken from ChEMBL document CHEMBL3046842, “Antimicrobial and insect antifeedant activities of some Trogers bases” (2012).
